In patent US20230263822A1, “MODULATION OF FACTOR 11 EXPRESSION” (Ionis Pharmaceuticals, Inc., priority 2008, published 2023):

Assay: Hematology assays in cynomolgus monkeys (Example 45)
Format: in vivo
Details: for MCH / MCHC / MCV / RBC count / WBC count / hematocrit / hemoglobin: escalating dose regimen
Summary of the method: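 Cynomolgus monkeys (2 male, 3 female per group) dosed subcutaneously with antisense oligonucleotide or PBS, escalating 5, 10, then 25 mg/kg two to three times weekly over 12 weeks; one chronic group held at 10 mg/kg from week 4. Blood sampled weekly; necropsy on day 85.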

ISIS 417002: MOE gapmer, nucleobases 1275 to 1318 of SEQ ID NO: 1 (Table 8) (antisense GGTGCACAGTTTCTGGCAGG; MOE gapmer, wing and gap sizes not given here)
MCH (Day 64): 22 pg | MCH (Day 71): 23 pg | MCH (Day 78): 23 pg | MCH (Day 85): 23 pg | basophils (day 8): 0.3% | eosinophils (day 8): 0.2% | lymphocytes (day 8): 50% | monocytes (day 8): 3.3% | neutrophils (day 8): 46% | platelet count (day 8): 435000 µL⁻¹ | reticulocytes (day 8): 1.1% | MCH (day 8): 23 pg | MCHC (day 8): 29 g/dL | MCV (day 8): 79 fL | RBC count (day 8): 5.6e+06 µL⁻¹ | WBC count (day 8): 10000 µL⁻¹ | hematocrit (day 8): 44% | hemoglobin (day 8): 12.8 g/dL | basophils (day 15): 0.2% | eosinophils (day 15): 0.1% | lymphocytes (day 15): 40% | monocytes (day 15): 2.3% | neutrophils (day 15): 57% | platelet count (day 15): 410000 µL⁻¹ | reticulocytes (day 15): 1.1% | MCH (day 15): 23 pg | MCHC (day 15): 31 g/dL | MCV (day 15): 76 fL | RBC count (day 15): 5.4e+06 µL⁻¹ | WBC count (day 15): 10000 µL⁻¹ | hematocrit (day 15): 40% | hemoglobin (day 15): 12.3 g/dL | basophils (day 22): 0.2% | eosinophils (day 22): 0.3% | lymphocytes (day 22): 41% | monocytes (day 22): 3.1% | neutrophils (day 22): 55% | platelet count (day 22): 377000 µL⁻¹ | reticulocytes (day 22): 1.2% | MCH (day 22): 23 pg | MCHC (day 22): 29 g/dL | MCV (day 22): 79 fL | RBC count (day 22): 5.2e+06 µL⁻¹ | WBC count (day 22): 10000 µL⁻¹ | hematocrit (day 22): 41% | hemoglobin (day 22): 12.1 g/dL | basophils (day 29): 0.2% | eosinophils (day 29): 0.3% | lymphocytes (day 29): 50% | monocytes (day 29): 3.5% | neutrophils (day 29): 45% | platelet count (day 29): 410000 µL⁻¹ | reticulocytes (day 29): 1.6% | MCH (day 29): 23 pg | MCHC (day 29): 29 g/dL | MCV (day 29): 81 fL | RBC count (day 29): 5.2e+06 µL⁻¹ | WBC count (day 29): 10000 µL⁻¹ | hematocrit (day 29): 42% | hemoglobin (day 29): 12.0 g/dL | basophils (day 36): 0.2% | eosinophils (day 36): 0.2% | lymphocytes (day 36): 35% | monocytes (day 36): 2.6% | neutrophils (day 36): 61% | platelet count (day 36): 415000 µL⁻¹ | reticulocytes (day 36): 1.3% | MCH (day 36): 23 pg | MCHC (day 36): 30 g/dL | MCV (day 36): 78 fL | RBC count (day 36): 5.4e+06 µL⁻¹ | WBC count (day 36): 11000 µL⁻¹ | hematocrit (day 36): 42% | hemoglobin (day 36): 12.5 g/dL | basophils (day 43): 0.3% | eosinophils (day 43): 0.2% | lymphocytes (day 43): 39% | monocytes (day 43): 2.8% | neutrophils (day 43): 57% | platelet count (day 43): 393000 µL⁻¹ | reticulocytes (day 43): 1.1% | MCH (day 43): 23 pg | MCHC (day 43): 30 g/dL | MCV (day 43): 77 fL | RBC count (day 43): 5.4e+06 µL⁻¹ | WBC count (day 43): 10000 µL⁻¹ | hematocrit (day 43): 41% | hemoglobin (day 43): 12.3 g/dL | basophils (day 50): 0.3% | eosinophils (day 50): 0.1% | lymphocytes (day 50): 34% | monocytes (day 50): 3.1% | neutrophils (day 50): 61% | platelet count (day 50): 389000 µL⁻¹ | reticulocytes (day 50): 1.6% | MCH (day 50): 23 pg | MCHC (day 50): 29 g/dL | MCV (day 50): 80 fL | RBC count (day 50): 5.4e+06 µL⁻¹ | WBC count (day 50): 13000 µL⁻¹ | hematocrit (day 50): 43% | hemoglobin (day 50): 12.3 g/dL | basophils (day 57): 0.3% | eosinophils (day 57): 0.2% | lymphocytes (day 57): 40% | monocytes (day 57): 3.6% | neutrophils (day 57): 54% | platelet count (day 57): 403000 µL⁻¹ | reticulocytes (day 57): 4.6% | MCH (day 57): 23 pg | MCHC (day 57): 29 g/dL | MCV (day 57): 80 fL | RBC count (day 57): 4.9e+06 µL⁻¹ | WBC count (day 57): 12000 µL⁻¹ | hematocrit (day 57): 38% | hemoglobin (day 57): 11.3 g/dL | basophils (day 64): 0.2% | eosinophils (day 64): 0.2% | lymphocytes (day 64): 39% | monocytes (day 64): 4.0% | neutrophils (day 64): 55% | platelet count (day 64): 436000 µL⁻¹ | reticulocytes (day 64): 1.3% | MCHC (day 64): 30 g/dL | MCV (day 64): 76 fL | RBC count (day 64): 5.4e+06 µL⁻¹ | WBC count (day 64): 11000 µL⁻¹ | hematocrit (day 64): 41% | hemoglobin (day 64): 12.2 g/dL | basophils (day 71): 0.3% | eosinophils (day 71): 0.3% | lymphocytes (day 71): 59% | monocytes (day 71): 4.7% | neutrophils (day 71): 34% | platelet count (day 71): 490000 µL⁻¹ | reticulocytes (day 71): 1.3% | MCHC (day 71): 29 g/dL | MCV (day 71): 78 fL | RBC count (day 71): 5.5e+06 µL⁻¹ | WBC count (day 71): 12000 µL⁻¹ | hematocrit (day 71): 43% | hemoglobin (day 71): 12.5 g/dL | basophils (day 78): 0.3% | eosinophils (day 78): 0.1% | lymphocytes (day 78): 41% | monocytes (day 78): 4.7% | neutrophils (day 78): 51% | platelet count (day 78): 432000 µL⁻¹ | reticulocytes (day 78): 1.3% | MCHC (day 78): 31 g/dL | MCV (day 78): 75 fL | RBC count (day 78): 5.4e+06 µL⁻¹ | WBC count (day 78): 9000 µL⁻¹ | hematocrit (day 78): 40% | hemoglobin (day 78): 12.4 g/dL | basophils (day 85): 0.3% | eosinophils (day 85): 0.2% | lymphocytes (day 85): 56% | monocytes (day 85): 5.3% | neutrophils (day 85): 36% | platelet count (day 85): 418000 µL⁻¹ | reticulocytes (day 85): 1.4% | MCHC (day 85): 30 g/dL | MCV (day 85): 76 fL | RBC count (day 85): 5.4e+06 µL⁻¹ | WBC count (day 85): 10000 µL⁻¹ | hematocrit (day 85): 41% | hemoglobin (day 85): 12.2 g/dL | basophils (day −5): 0.3% | eosinophils (day −5): 0.3% | lymphocytes (day −5): 53% | monocytes (day −5): 3.2% | neutrophils (day −5): 43% | platelet count (day −5): 466000 µL⁻¹ | reticulocytes (day −5): 0.8% | MCH (day −5): 24 pg | MCHC (day −5): 30 g/dL | MCV (day −5): 80 fL | RBC count (day −5): 5.6e+06 µL⁻¹ | WBC count (day −5): 14000 µL⁻¹ | hematocrit (day −5): 45% | hemoglobin (day −5): 13.2 g/dL | basophils (day −14): 0.3% | eosinophils (day −14): 0.3% | lymphocytes (day −14): 53% | monocytes (day −14): 3.0% | neutrophils (day −14): 43% | platelet count (day −14): 442000 µL⁻¹ | reticulocytes (day −14): 0.9% | MCH (day −14): 24 pg | MCHC (day −14): 30 g/dL | MCV (day −14): 79 fL | RBC count (day −14): 5.6e+06 µL⁻¹ | WBC count (day −14): 13000 µL⁻¹ | hematocrit (day −14): 44% | hemoglobin (day −14): 13.0 g/dL
